Measured values as given in ChEMBL document CHEMBL3526036, “Hepatic pharmacokinetics of cationic drugs in a high-fat emulsion-induced rat model of nonalcoholic steatohepatitis” (Drug Metab Dispos, 2011).
Each block holds one compound with its values, some of them ahead of it.

How the values were obtained:
[1] = Octanol-water apparent partition coefficient, logD of the compound at pH 7.4; format: physicochemical
[2] = Dissociation constant, pKa of the compound; format: physicochemical
[3] = Extraction ratio of the compound in healthy Wistar rat perfused liver at 4 mM after 10 mins; format: ADME, tissue-based; details: read-out: ERH
[4] = Extraction ratio of the compound in perfused liver of high-fat emulsion-induced nonalcoholic steatohepatitis Wistar rat at 4 mM after 10 mins; format: ADME, tissue-based; details: read-out: ERH
Liver [5] = assay: Mean transit time of the compound in healthy Wistar rat perfused liver at 4 mM after 10 mins; format: ADME, tissue-based; details: 4000 µM
Liver [6] = assay: Mean transit time of the compound in perfused liver of high-fat emulsion-induced nonalcoholic steatohepatitis Wistar rat at 4 mM after 10 mins; format: ADME, tissue-based; details: 4000 µM
Liver [7] = assay: Apparent distribution ratio of the compound in healthy Wistar rat perfused liver at 4 mM after 10 mins; format: ADME, tissue-based; details: 4000 µM
Liver [8] = assay: Apparent distribution ratio of the compound in perfused liver of high-fat emulsion-induced nonalcoholic steatohepatitis Wistar rat at 4 mM after 10 mins; format: ADME, tissue-based; details: 4000 µM
Liver [9] = assay: Mean transit time of the compound in healthy Wistar rat perfused liver at 6 mM after 10 mins; format: ADME, tissue-based; details: 6000 µM
Liver [10] = assay: Mean transit time of the compound in perfused liver of high-fat emulsion-induced nonalcoholic steatohepatitis Wistar rat at 6 mM after 10 mins; format: ADME, tissue-based; details: 6000 µM
Liver [11] = assay: Drug distribution in perfused liver of high-fat emulsion-induced nonalcoholic steatohepatitis Wistar rat assessed as equilibrium amount ratio charactering fast binding process at 6 mM after 10 mins; format: ADME, tissue-based; details: in vivo, 6000 µM
Liver [12] = assay: Drug distribution in healthy Wistar rat perfused liver assessed as equilibrium amount ratio charactering slow binding process at 6 mM after 10 mins; format: ADME, tissue-based; details: in vivo, 6000 µM
Liver [13] = assay: Drug distribution in perfused liver of high-fat emulsion-induced nonalcoholic steatohepatitis Wistar rat assessed as equilibrium amount ratio charactering slow binding process at 6 mM after 10 mins; format: ADME, tissue-based; details: in vivo, 6000 µM
Liver [14] = assay: Apparent distribution ratio of the compound in healthy Wistar rat perfused liver at 6 mM after 10 mins; format: ADME, tissue-based; details: 6000 µM
Liver [15] = assay: Apparent distribution ratio of the compound in perfused liver of high-fat emulsion-induced nonalcoholic steatohepatitis Wistar rat at 6 mM after 10 mins; format: ADME, tissue-based; details: 6000 µM
Liver [16] = assay: Drug distribution in healthy Wistar rat perfused liver assessed as equilibrium amount ratio charactering fast binding process at 6 mM after 10 mins; format: ADME, tissue-based; details: in vivo, 6000 µM
in vitro [17] = details: Wistar, rat, perfused liver
Description: Extraction ratio of the compound in healthy Wistar rat perfused liver at 6 mM after 10 mins

in vitro [18] = details: Wistar, rat, perfused liver; remark: listed apart in the source
Description: Extraction ratio of the compound in perfused liver of high-fat emulsion-induced nonalcoholic steatohepatitis Wistar rat at 6 mM after 10 mins

Liver [19] = assay: Mean transit time of the compound in healthy Wistar rat perfused liver at 3 mM after 10 mins; format: ADME, tissue-based; details: 3000 µM
Liver [20] = assay: Mean transit time of the compound in perfused liver of high-fat emulsion-induced nonalcoholic steatohepatitis Wistar rat at 3 mM after 10 mins; format: ADME, tissue-based; details: 3000 µM
Liver [21] = assay: Drug distribution in healthy Wistar rat perfused liver assessed as equilibrium amount ratio charactering slow binding process at 3 mM after 10 mins; format: ADME, tissue-based; details: in vivo, 3000 µM
Liver [22] = assay: Apparent distribution ratio of the compound in perfused liver of high-fat emulsion-induced nonalcoholic steatohepatitis Wistar rat at 3 mM after 10 mins; format: ADME, tissue-based; details: 3000 µM
Liver [23] = assay: Mean transit time of the compound in healthy Wistar rat perfused liver at 8 mM after 10 mins; format: ADME, tissue-based; details: 8000 µM
Liver [24] = assay: Mean transit time of the compound in perfused liver of high-fat emulsion-induced nonalcoholic steatohepatitis Wistar rat at 8 mM after 10 mins; format: ADME, tissue-based; details: 8000 µM
Liver [25] = assay: Drug distribution in perfused liver of high-fat emulsion-induced nonalcoholic steatohepatitis Wistar rat assessed as equilibrium amount ratio charactering fast binding process at 8 mM after 10 mins; format: ADME, tissue-based; details: in vivo, 8000 µM
Liver [26] = assay: Drug distribution in healthy Wistar rat perfused liver assessed as equilibrium amount ratio charactering slow binding process at 8 mM after 10 mins; format: ADME, tissue-based; details: in vivo, 8000 µM
Liver [27] = assay: Drug distribution in perfused liver of high-fat emulsion-induced nonalcoholic steatohepatitis Wistar rat assessed as equilibrium amount ratio charactering slow binding process at 8 mM after 10 mins; format: ADME, tissue-based; details: in vivo, 8000 µM
Liver [28] = assay: Apparent distribution ratio of the compound in healthy Wistar rat perfused liver at 8 mM after 10 mins; format: ADME, tissue-based; details: 8000 µM
Liver [29] = assay: Apparent distribution ratio of the compound in perfused liver of high-fat emulsion-induced nonalcoholic steatohepatitis Wistar rat at 8 mM after 10 mins; format: ADME, tissue-based; details: 8000 µM
Liver [30] = assay: Drug distribution in healthy Wistar rat perfused liver assessed as equilibrium amount ratio charactering fast binding process at 8 mM after 10 mins; format: ADME, tissue-based; details: in vivo, 8000 µM

Compound: Cc1cc(=O)n(-c2ccccc2)n1C [ANTIPYRINE]
logD ([1]; read-out: LogD7.4): 0.33 | pKa [2]: 1.45 | hepatic extraction ratio at 10 min, 4000 µM [3]: 0.16 | hepatic extraction ratio at 10 min, 4000 µM [4]: 0.08 | MTT (Liver [5]): 46.46 s | MTT (Liver [6]): 64.12 s | K (Liver [7]): 2.67 | K (Liver [8]): 4.5

MTT (Liver [5]): 13.12 s | MTT (Liver [6]): 18.63 s | K (Liver [7]): 9.9 | K (Liver [8]): 12.51
Compound: CC(C)NCC(O)COc1ccc(CC(N)=O)cc1 (stereo unspecified) [ATENOLOL]

LogD7.4 [1]: 2.69 | MTT (Liver [9]): 29.1 s | MTT (Liver [10]): 33.98 s | K (Liver [11]): 1.94 | K (Liver [12]): 6.78 | K (Liver [13]): 11.81 | K (Liver [14]): 6.45 | K (Liver [15]): 10.94 | K (Liver [16]): 1.08 | hepatic extraction ratio at 10 min, 6000 µM (in vitro [17]): 0.86 | hepatic extraction ratio at 10 min, 6000 µM (in vitro [18]): 0.79
Compound: CC(CCc1ccccc1)NCC(O)c1ccc(O)c(C(N)=O)c1 (stereo unspecified) [LABETALOL]

LogD7.4 [1]: 1.79 | MTT (Liver [19]): 60.26 s | MTT (Liver [20]): 67.43 s | K (Liver [21]): 2.27 | K (Liver [22]): 11.97
Compound: COCCc1ccc(OCC(O)CNC(C)C)cc1 (stereo unspecified) [METOPROLOL]

MTT (Liver [23]): 58.14 s | MTT (Liver [24]): 70.99 s | K (Liver [25]): 0.38 | K (Liver [26]): 13.59 | K (Liver [27]): 5.35 | K (Liver [28]): 10.76 | K (Liver [29]): 16.31 | K (Liver [30]): 1.96
Compound: CC(C)NCC(O)COc1cccc2ccccc12 (stereo unspecified) [PROPRANOLOL]
